Assay in all cases: In vitro cytotoxicity, Development Therapeutics Program
Type in all cases: cell-based

The subject of one experiment is CAK1-1. The settings on record: CAK1-1, renal cancer; 1.0×10^−5 M. Summed up: (§1)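 US DTP in vitro cytotoxicity testing; fixed 1.0×10^−5 M dose per cell line; inhibition reported.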
Another experiment concerns CCRF-CEM. The settings on record: leukemia, 1.0×10^−5 M. Summed up:
as §1

A further experiment relates to HCT-116. The note with it: HCT-116, colon cancer; 1.0×10^−5 M. Summed up:
as §1

Another experiment has as its system HS 578T. The settings on record: breast cancer, 1.0×10^−5 M. Summed up: as §1
The subject of another experiment is K-562. The note with it: K-562, leukemia; 1.0×10^−5 M. The procedure, abridged:
as §1

The test system of the next experiment is M14. The settings on record: M14, melanoma; 1.0×10^−5 M. Summed up:
as §1

For another experiment, the system named is NCl-H522. The note with it: NCl-H522, non-small cell lung cancer; 1.0×10^−5 M. The procedure, abridged: as §1
In the next experiment the test system is OVCAR-3. The settings on record: OVCAR-3, ovarian cancer; 1.0×10^−5 M. The procedure, abridged: as §1
Another experiment deals with OVCAR-4. The note with it: OVCAR-4, ovarian cancer; 1.0×10^−5 M. Summed up:
as §1

The test system of the next experiment is RPMI-8226. The settings on record: RPMI-8226, leukemia; 1.0×10^−5 M. Summed up: as §1
In a further experiment the test system is SF-295. The note with it: SF-295, CNS cancer; 1.0×10^−5 M. Summed up: as §1
The next experiment has as its system SK-OV-3. The note with it: SK-OV-3, ovarian cancer; 1.0×10^−5 M. Summed up:
as §1

The test system of a further experiment is SN12C. The note with it: renal cancer, 1.0×10^−5 M. The procedure, abridged:
as §1

A further experiment deals with SW-620. The note with it: SW-620, colon cancer; 1.0×10^−5 M. Summed up: as §1
The subject of another experiment is TK-10. The settings on record: TK-10, renal cancer; 1.0×10^−5 M. The procedure, abridged: as §1
In the next experiment the test system is U251. The note with it: U251, CNS cancer; 1.0×10^−5 M. Summed up:
as §1

For the compound `O=C1c2ccc(NC(=O)C3CC3)cc2C(=O)c2cc(NC(=O)C3CC3)ccc21` [Compound 32, 2,7-Bis(cyclopropanecarbonamido)anthraquinone], the “Cellular growth rate (%)” value with CAK1-1 turned out to be 88.43%; in the experiment on CCRF-CEM, 90.67%; in the experiment with HCT-116, 87.14%; with HS 578T it was 118.90%; in the experiment on K-562, 91.60%; in the experiment with M14 it was 98.89%. Further, the “Cellular growth rate (%)” value is 89.41% in the experiment with NCl-H522; 103.35% with OVCAR-3; 97.54% with OVCAR-4; 88.38% in the experiment on RPMI-8226; 86.60% with SF-295; 93.16% in the experiment on SK-OV-3. The “Cellular growth rate (%)” value in the experiment with SN12C is recorded as 82.93%; with SW-620 it was 104.75%; in the experiment with TK-10 it was 136.20%; in the experiment on U251, 72.62%.
As to `O=C(CCN1CCCC1)Nc1ccc2c(c1)C(=O)c1cc(NC(=O)CCN3CCCC3)ccc1C2=O` [Compound 18, 2,7-Bis[3-(pyrrolidino)propionamido]anthraquinone], the “Cellular growth rate (%)” value was determined as 55.55% in the experiment with CAK1-1; 3.74% in the experiment on CCRF-CEM; 10.51% in the experiment on HCT-116; 5.26% in the experiment with HS 578T; 6.40% in the experiment on K-562; 53.88% with M14. Moreover, the “Cellular growth rate (%)” value with NCl-H522 amounted to 29.16%; in the experiment with OVCAR-3, 36.88%; in the experiment on OVCAR-4, 49.82%; in the experiment with RPMI-8226, 47.90%; in the experiment on SF-295 it was 48.62%; in the experiment on SK-OV-3, 27.14%. Also, the “Cellular growth rate (%)” value in the experiment with SN12C was determined as 6.68%; in the experiment on SW-620, 20.01%; in the experiment on TK-10 it was 31.22%; in the experiment on U251, 18.16%.
Consider `CCN(CC)CCC(=O)Nc1ccc2c(c1)C(=O)c1cc(NC(=O)CCN(CC)CC)ccc1C2=O` [Compound 16, 2,7-Bis[3-(diethylamino)propionamido]anthraquinone], for which the “Cellular growth rate (%)” value is given as 3.27% in the experiment with CAK1-1; −6.02% in the experiment with CCRF-CEM; −32.45% with HCT-116; −23.77% in the experiment on HS 578T; 8.10% with K-562; 62.79% with M14. Moreover, the “Cellular growth rate (%)” value in the experiment with NCl-H522 is on record as 27.98%; in the experiment on OVCAR-3, 10.39%; in the experiment with OVCAR-4, 24.92%; in the experiment on RPMI-8226 it was −29.02%; with SF-295 it was −19.91%; in the experiment on SK-OV-3 it was 44.02%. The “Cellular growth rate (%)” value stood at 8.63% in the experiment on SN12C, 16.93% in the experiment with SW-620, 17.16% with TK-10 and 21.65% in the experiment on U251.
For the compound `CC(=O)Nc1ccc2c(c1)C(=O)c1cc(NC(C)=O)ccc1C2=O` [Compound 26, 2,7-Bis(acetamido)anthraquinone], the “Cellular growth rate (%)” value in the experiment on CAK1-1 stood at 105.10%; in the experiment on CCRF-CEM, 99.77%; in the experiment on HCT-116, 101.91%; with HS 578T, 133.05%; in the experiment on K-562, 98.54%; in the experiment on M14 it was 105.11%. Further, the “Cellular growth rate (%)” value in the experiment on NCl-H522 is 93.56%; in the experiment with OVCAR-3, 111.06%; with OVCAR-4, 103.60%; in the experiment on RPMI-8226 it was 121.47%; with SF-295, 103.25%; with SK-OV-3, 101.12%. Moreover, the “Cellular growth rate (%)” value with SN12C is 113.35%; in the experiment with SW-620 it was 103.21%; in the experiment with TK-10, 118.38%; with U251 it was 95.14%.
In the case of `CN(C)CC(=O)Nc1ccc2c(c1)C(=O)c1cc(NC(=O)CN(C)C)ccc1C2=O` [Compound 8, 2,7-Bis[2-(dimethylamino)acetamido]anthraquinone], the “Cellular growth rate (%)” value is listed as 59.26% in the experiment with CAK1-1; −13.21% with CCRF-CEM; 19.07% in the experiment with HCT-116; −6.11% in the experiment with HS 578T; 34.91% in the experiment with K-562; 75.04% with M14. Also, the “Cellular growth rate (%)” value with NCl-H522 is reported as 61.82%; with OVCAR-3 it was 43.63%; in the experiment on OVCAR-4 it was 45.70%; in the experiment with RPMI-8226, 34.97%; in the experiment with SF-295 it was −83.51%; with SK-OV-3, 70.26%. In addition, the “Cellular growth rate (%)” value amounted to 27.99% in the experiment with SN12C, 23.36% in the experiment with SW-620, 73.47% in the experiment on TK-10 and 16.26% in the experiment on U251.

Values taken from patent US20090253709A1 (NATIONAL DEFENSE MEDICAL CENTER, priority 2008, published 2009).
